{
  "source": "patent US20090035876A1",
  "about": "“Electrochemical Assay” (Inverness Medical Switzerland GMBH, priority 2005, published 2009)",
  "key": {"[1]": {"target": "human serum albumin (HSA) (Homo sapiens, UniProt P02768)", "sequence (P02768 25-609)": "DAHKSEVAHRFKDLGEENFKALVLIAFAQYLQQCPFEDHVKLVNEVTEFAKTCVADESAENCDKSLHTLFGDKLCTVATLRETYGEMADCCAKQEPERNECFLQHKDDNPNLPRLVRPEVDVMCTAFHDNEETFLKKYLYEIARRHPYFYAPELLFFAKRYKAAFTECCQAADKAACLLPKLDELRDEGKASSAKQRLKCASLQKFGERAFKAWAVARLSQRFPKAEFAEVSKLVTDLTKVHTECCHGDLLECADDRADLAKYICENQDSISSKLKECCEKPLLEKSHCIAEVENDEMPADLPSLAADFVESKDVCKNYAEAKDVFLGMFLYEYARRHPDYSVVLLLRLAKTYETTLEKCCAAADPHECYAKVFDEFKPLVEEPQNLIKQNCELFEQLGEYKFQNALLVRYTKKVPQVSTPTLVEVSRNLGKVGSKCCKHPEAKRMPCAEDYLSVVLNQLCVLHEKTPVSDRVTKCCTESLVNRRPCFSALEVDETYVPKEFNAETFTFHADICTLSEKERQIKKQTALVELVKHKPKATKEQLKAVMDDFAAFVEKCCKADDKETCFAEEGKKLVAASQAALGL", "conditions": "probe 25 μM, HSA 500 μM, cyclic voltammetry", "excerpt": "Cyclic voltammetry was used to measure the concentration of the ferrocene labelled fatty acid probe with and without the presence of HSA allowing percentage bound to be calculated."}, "[2]": {"assay": "Photolysis of the UV-cleavable ferrocene molecule in solution, followed by TLC", "assay_type": "physicochemical", "conditions": "UV 365 nm, methanolic/PBS solution, 2.18 mM", "description": "The cleavage study was followed by Thin Layer Chromatography (TLC) after irradiation for a definite time of a methanolic/PBS solution of the UV-cleavable ferrocene 9 (FIG. 3). • After 2 minutes of irradiation, the appearance of two new products was observed; One of them corresponding to the ferrocene product 8 (on the base line), the other one corresponding probably to the nitroso-derivative 10 just under the front line). • Under the irradiation conditions used, the Uv-cleavable ferrocene molecule was completely cleaved in less than 6 minutes.\nTo a solution of UV-cleavable ferrocene 9 (0.7 mg, 1.09*10^−6 mol) dissolved in 250 μl of methanol was added 250 μl of PBS. 30 μl of this solution was irradiated using a UV model B100A with a wavelength of 365 nm and an intensity of 8,900 μW/cm^2 at 10″. The UV was applied at approximately 15 cm from the solution.\nThe cleavage was followed by TLC every two minutes. Eluent used: Ethyl acetate/hexane (80/20) and DCM/MeOH/Et3N (85/10/5)."}},
  "data": [
    {"compound": "OC[c-]1cccc1.[Fe+2].c1cc[cH-]c1", "note": "[ferrocene methanol]", "values": [
      {"measurement": "percentage bound to HSA", "setting": "[1]", "value": 50, "unit": "%"}
    ]},
    {"compound": "Thioacetic acid S—[3-(1-{2-[2-(2-ferrocenoylamino-ethoxy)-ethoxy]-ethylcarbamoyloxy}-ethyl)-4-nitro-benzyl]ester [UV-cleavable ferrocene molecule 9]", "values": [
      {"measurement": "irradiation time until completely cleaved", "setting": "[2]", "value": "less than 6 minutes"}
    ]}
  ]
}
